In US20170290882A1, “Specific Combined Therapy of Malignant Tumors with a Cytostatic and Its Modifier” (priority 2015, published 2017):

Tested on: P388 lymphoplastic leukemia
Test: Combined therapy DDP+GMDP-A in the P388 lymphoplastic leukemia model
Format: in vivo, mice BDF1
Details: for Tumor volume / tumor growth inhibition (TGI) / Average life time / ILT (increase of the animal life time) / Metastasis MF (tumor metastasis frequency) / Metastasis MI (metastasis inhibition rate): DDP, if given, single 4 mg/kg i.v.
[1] = day 7, early start (1st day), 5-fold GMDP-A 3.75 mg/kg s.c.
[2] = day 7, early start (1st day), 10-fold GMDP-A 3.75 mg/kg s.c.
[3] = day 7, early start (1st day), 21-fold GMDP-A 3.75 mg/kg s.c.
[4] = day 7, late start (5th day), 5-fold GMDP-A 3.75 mg/kg s.c.
[5] = day 7, late start (5th day), 10-fold GMDP-A 3.75 mg/kg s.c.
[6] = day 9, early start (1st day), 5-fold GMDP-A 3.75 mg/kg s.c.
[7] = day 9, early start (1st day), 10-fold GMDP-A 3.75 mg/kg s.c.
[8] = day 9, early start (1st day), 21-fold GMDP-A 3.75 mg/kg s.c.
[9] = day 9, late start (5th day), 5-fold GMDP-A 3.75 mg/kg s.c.
[10] = day 9, late start (5th day), 10-fold GMDP-A 3.75 mg/kg s.c.
[11] = day 12, early start (1st day), 5-fold GMDP-A 3.75 mg/kg s.c.
[12] = day 12, early start (1st day), 10-fold GMDP-A 3.75 mg/kg s.c.
[13] = day 12, early start (1st day), 21-fold GMDP-A 3.75 mg/kg s.c.
[14] = day 12, late start (5th day), 5-fold GMDP-A 3.75 mg/kg s.c.
[15] = day 12, late start (5th day), 10-fold GMDP-A 3.75 mg/kg s.c.
[16] = day 14, early start (1st day), 5-fold GMDP-A 3.75 mg/kg s.c.
[17] = day 14, early start (1st day), 10-fold GMDP-A 3.75 mg/kg s.c.
[18] = day 14, early start (1st day), 21-fold GMDP-A 3.75 mg/kg s.c.
[19] = day 14, late start (5th day), 5-fold GMDP-A 3.75 mg/kg s.c.
[20] = day 14, late start (5th day), 10-fold GMDP-A 3.75 mg/kg s.c.
[21] = day 19, early start (1st day), 5-fold GMDP-A 3.75 mg/kg s.c.
[22] = day 19, early start (1st day), 10-fold GMDP-A 3.75 mg/kg s.c.
[23] = day 19, early start (1st day), 21-fold GMDP-A 3.75 mg/kg s.c.
[24] = day 19, late start (5th day), 5-fold GMDP-A 3.75 mg/kg s.c.
[25] = day 19, late start (5th day), 10-fold GMDP-A 3.75 mg/kg s.c.
[26] = early start (1st day), 5-fold GMDP-A 3.75 mg/kg s.c.
[27] = early start (1st day), 10-fold GMDP-A 3.75 mg/kg s.c.
[28] = early start (1st day), 21-fold GMDP-A 3.75 mg/kg s.c.
[29] = late start (5th day), 5-fold GMDP-A 3.75 mg/kg s.c.

Experimental: They were transplanted on the right-side surface of the animal body.
The animals with tumors were treated in test groups at the early (24 hours after tumor inoculation) and late (5 days after tumor inoculation) terms of the tumor growth using a single cytostatic injection intravenously in a dose equal to ½ or ¼ of therapeutic one and various schedules for GMDP-A injection: • Primary subcutaneous injection of GMDP-A modifier in a single dose 3.75 mg/kg; • Repeated protracted subcutaneous administration of GMDP-A modifier according to different schedules: 4-fold, 9-fold and 20-fold, once per day, in a single dose of 3.75 mg/kg (course dose is 18.75 mg/kg, 37.5 mg/kg and 78.75 mg/kg, correspondingly). Dosage frequency depends upon the model (histological form of transplanted tumor).
To identify efficiency of the claimed combined therapy, independent medication was carried out as a control after tumor inoculation using one component of binary therapy-cytostatic drug or a modifier. Cytostatic was injected intravenously in amount of ½ or ¼ of therapeutic dose once after 24 hours or 5 days after tumor inoculation; GMDP-A modifier was administered subcutaneously in a single dose of 3.75 mg/kg 5-fold from the 1st day to the 5th day or from the 5th day to the 9th day, or 10-fold from the 1st day to the 10th day or from the 5th day to the 14th day, or 21-fold from the 1st day to the 21st day after tumor inoculation.
Anti-tumor efficiency of the claimed combined therapy and comparative monotherapy using only a cytostatic or only GMDP-A modifier was assessed by the criteria commonly used in experimental oncology: tumor volume (TV), tumor growth inhibition (TGI), increase of the animal life time (ILT), tumor metastasis frequency (MF), metastasis inhibition rate (MI).
Efficiency of the combined therapy—chemotherapy with cisplatin cytostatic (DDP) and bioherapy with GMDP-A was assessed on P388 lymphoplastic leukemia model inoculated to mice BDF1, females, subcutaneously on the right-side body surface.
GMDP-A was administered to mice subcutaneously as a single dose of 3.75 mg/kg every day with different schedules: • Five-fold (total dose is 18.75 mg/kg) on the 1st day to the 5th day or on the 5th day to the 9th day after tumor inoculation; • Ten-fold (total dose is 37.5 mg/kg) on the 1st day to the 10th day or on the 5th day to the 14th day after tumor inoculation; • Twenty-one-fold (total dose is 78.75 mg/kg) on the 1st day to the 21st st day after tumor inoculation.
DDP (Cisplatin, Cisplatin Teva trade mark, manufacturer is Teva Pharmaceutical Industries Ltd., Israel, fabricated at Pharmachemie B.V., the Netherlands) was administered intravenously as a single dose ma 4 mg/kg (½ of therapeutic dose).

Compound: CC(=O)NC1C(OC2C(CO)OC(O)C(NC(C)=O)C2OC(C)C(=O)NC(C)C(=O)NC(CCC(=O)O)C(=O)O)OC(CO)C(O)C1O [GMDP-A, N-acetyl-D-glucosaminyl-β-(1-4)-N-acetylmuramyl-L-alanyl-D-glutamic acid]
- Tumor volume [1]: 45 ± 2 mm^3
- tumor growth inhibition (TGI) [1]: 51%
- Tumor volume [2]: 66.6 ± 6 mm^3
- tumor growth inhibition (TGI) [2]: 37%
- Tumor volume [3]: 73.5 ± 4.8 mm^3
- tumor growth inhibition (TGI) [3]: 30%
- Tumor volume [4]: 63 ± 12 mm^3
- tumor growth inhibition (TGI) [4]: 31%
- Tumor volume [5]: 86.5 ± 5.9 mm^3
- tumor growth inhibition (TGI) [5]: 18%
- Tumor volume [6]: 124 ± 7 mm^3
- tumor growth inhibition (TGI) [6]: 36%
- Tumor volume [7]: 108.6 ± 14.2 mm^3
- tumor growth inhibition (TGI) [7]: 24%
- Tumor volume [8]: 120.6 ± 12.5 mm^3
- tumor growth inhibition (TGI) [8]: 16%
- Tumor volume [9]: 107 ± 18 mm^3
- tumor growth inhibition (TGI) [9]: 45%
- Tumor volume [10]: 105 ± 9 mm^3
- tumor growth inhibition (TGI) [10]: 26%
- Tumor volume [11]: 204 ± 54 mm^3
- tumor growth inhibition (TGI) [11]: 6%
- Tumor volume [12]: 187.3 ± 27.4 mm^3
- tumor growth inhibition (TGI) [12]: 4%
- Tumor volume [13]: 159.0 ± 14.7 mm^3
- tumor growth inhibition (TGI) [13]: 18%
- Tumor volume [14]: 172 ± 51 mm^3
- tumor growth inhibition (TGI) [14]: 21%
- Tumor volume [15]: 163.8 ± 13.5 mm^3
- tumor growth inhibition (TGI) [15]: 16%
- Tumor volume [16]: 257 ± 24 mm^3
- tumor growth inhibition (TGI) [16]: 16%
- Tumor volume [17]: 245.3 ± 30.5 mm^3
- tumor growth inhibition (TGI) [17]: 9%
- Tumor volume [18]: 200.7 ± 17.3 mm^3
- tumor growth inhibition (TGI) [18]: 25%
- Tumor volume [19]: 257 ± 53 mm^3
- tumor growth inhibition (TGI) [19]: 16%
- Tumor volume [20]: 242.4 ± 18.3 mm^3
- tumor growth inhibition (TGI) [20]: 10%
- Tumor volume [21]: 318 ± 42 mm^3
- tumor growth inhibition (TGI) [21]: 6%
- Tumor volume [22]: 566.9 ± 50.2 mm^3
- tumor growth inhibition (TGI) [22]: 11%
- Tumor volume [23]: 432.1 ± 67.9 mm^3
- tumor growth inhibition (TGI) [23]: 32%
- Tumor volume [24]: 302 ± 103 mm^3
- tumor growth inhibition (TGI) [24]: 11%
- Tumor volume [25]: 510.1 ± 46.6 mm^3
- tumor growth inhibition (TGI) [25]: 20%
- Average life time [26]: 22 ± 1.2 days
- ILT (increase of the animal life time) [26]: 21%
- Average life time [27]: 24 ± 0.5 days
- ILT (increase of the animal life time) [27]: 0%
- Metastasis MF (tumor metastasis frequency) [27]: 100%
- Metastasis MI (metastasis inhibition rate) [27]: 10%
- Average life time [28]: 23 ± 1.6 days
- ILT (increase of the animal life time) [28]: −4%
- Metastasis MF (tumor metastasis frequency) [28]: 100%
- Metastasis MI (metastasis inhibition rate) [28]: 22%
- efficiency for individual use (without chemotherapy) (example 1): did not reach a biologically significant level
- Average life time [29]: 20 ± 0.9 days
- ILT (increase of the animal life time) [29]: 7%
- Average life time (late start (5th day), 10-fold GMDP-A 3.75 mg/kg s.c.): 24 ± 0.8 days
